From article PMC10353187, “Discovery of a new potent oxindole multi-kinase inhibitor among a series of designed 3-alkenyl-oxindoles with ancillary carbonic anhydrase inhibitory activity as antiproliferative agents” (BMC Chemistry, 2023)

What was measured:
Assay in all cases: NCI-60 single-dose antiproliferative assay (SRB)
Type in all cases: cell-based
OVCAR-5 = settings: Homo sapiens; 10 μM single dose; OVCAR-5, Ovarian Cancer; read-out: Cell Growth inhibition Percent
Outline: (§1)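 The tumour lines, maintained in RPMI 1640 supplemented with 5% fetal bovine serum, received each compound at one concentration (10 µM) for 48 h at 37 °C. Cell mass was quantified by SRB binding (515 nm) and expressed as percentage growth inhibition.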

HS 578T = settings: Homo sapiens, 10 μM single dose, Breast cancer, read-out: Cell Growth inhibition Percent
Outline: as §1

NCI-H322M = settings: Homo sapiens, 10 μM single dose, Non-small cell lung cancer, read-out: Cell Growth inhibition Percent
Outline: as §1

DU-145 = settings: Homo sapiens; 10 μM single dose; DU-145, Prostate cancer; read-out: Cell Growth inhibition Percent
Outline: as §1

COLO205 = settings: Homo sapiens, COLO 205; 10 μM single dose; COLO205, Colon cancer; read-out: Cell Growth inhibition Percent
Outline: as §1

HT29 = settings: Homo sapiens, HT-29; 10 μM single dose; HT29, Colon cancer; read-out: Cell Growth inhibition Percent
Outline: as §1

NCI/ADR-RES = settings: Homo sapiens, 10 μM single dose, Ovarian Cancer, read-out: Cell Growth inhibition Percent
Outline: as §1

HCC-2998 = settings: Homo sapiens; 10 μM single dose; HCC-2998, Colon cancer; read-out: Cell Growth inhibition Percent
Outline: as §1

SK-MEL-28 = settings: Homo sapiens; 10 μM single dose; SK-MEL-28, Melanoma; read-out: Cell Growth inhibition Percent
Outline: as §1

HL-60(TB) = settings: Homo sapiens, 10 μM single dose, Leukemia, read-out: Cell Growth inhibition Percent
UACC-257 = settings: Homo sapiens; 10 μM single dose; UACC-257, Melanoma; read-out: Cell Growth inhibition Percent
Outline: as §1

Structure (SMILES)	inhibition at 10 µM (OVCAR-5)	inhibition at 10 µM (HS 578T)	inhibition at 10 µM (NCI-H322M)	inhibition at 10 µM (DU-145)	inhibition at 10 µM (COLO205)	inhibition at 10 µM (HT29)	further results
O=C1Nc2ccccc2C1=CNc1ccc(C(=O)O)cc1 [Compound 4c, 4-{[(2-Oxoindolin-3-ylidene)methyl]amino}benzoic acid]	0.03%	0.5%	–	–	–	–	–
NS(=O)(=O)N/C=C1/C(=O)Nc2ccccc21 [Compound 5, 3-(sulfamidmethylene)indoline-2-one]	–	–	3.18%	–	–	–	–
NS(=O)(=O)c1ccc(NCc2ccc(NC=C3C(=O)Nc4ccccc43)cc2)cc1 [Compound 11a, 4-{[4-({[2-Oxoindolin-3-ylidene]methyl}amino)benzyl]amino}benzenesulfonamide]	–	–	–	2.9%	–	–	–
O=C1Nc2ccccc2C1=CNc1ccc(C(=O)C=CNc2nccs2)cc1 [Compound 13c, 3-{[(4-{3-[Thiazol-2-ylamino]acryloyl}phenyl)amino]methylene}indolin-2-one]	–	–	–	–	1.8%	8.13%	–
O=C(Nc1ccc(NC=C2C(=O)Nc3ccccc32)cc1)Nc1nccs1 [Compound 15c, 1-{4-[((2-Oxoindolin-3-ylidene)methyl)amino]phenyl}-3-(thiazol-2-yl)urea]	39.6%	68.5%	47.2%	59.5%	74.2%	82.1%	inhibition at 10 µM (NCI/ADR-RES): 59.2%; inhibition at 10 µM (HCC-2998): 26.1%; inhibition at 10 µM (SK-MEL-28): 38.7%; inhibition at 10 µM (HL-60(TB)): 58%; inhibition at 10 µM (UACC-257): 28.4%
